Source: US8871767B2, “2-arylimidazo[1,2-B]pyridazine, 2-phenylimidazo[1,2-A]pyridine, and 2-phenylimidazo[1,2-A]pyrazine derivatives” (Hengrui (USA) Ltd., priority 2010, dated 2014)
Read-outs that look alike come from different tables or passages of the source.

Assays:
[1] = test system: Hedgehog pathway activation on 10T1/2/Smo#3 cells (C3H10T1/2 cells transfected with human Smoothened receptor); experiment: Hedgehog pathway activation on 10T1/2/Smo#3 cells measured by ALP activity; assay type: cell-based; details: Mus musculus, C3H 10T1/2, 10T1/2/Smo#3 cells
Method in brief: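 C3H10T1/2 cells stably expressing human Smoothened were activated with hShh-conditioned medium (10-20%) or 500 nM SAG, with test compounds present. Pathway block read as inhibited ALP activity (4-methylumbelliferyl phosphate fluorescence); viability checked by CellTiter-Blue. IC50 values reported.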

[2] = test system: Hedgehog pathway activation (GLi-luciferase reporter) in Shh Light II reporter cells; experiment: Hedgehog pathway activation on Shh Light II reporter cells measured by luciferase activity; assay type: cell-based; details: Mus musculus, Shh Light II
Method in brief: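 Shh Light II reporter cells carrying a hedgehog-responsive GLi-luciferase reporter were stimulated either with 500 nM SAG, a direct Smoothened agonist, or with conditioned media containing human Sonic Hedgehog (hShh). Test compounds were evaluated for blocking this pathway activation, quantified by luciferase activity. Cell viability was monitored in parallel with the Celltiter-Blue® assay.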

[3] = measured by ALP activity, read-out: ALP (IC50, inhibition of Hedgehog pathway activation)
[4] = hShh activation, read-out: Shh (IC50, inhibition of Hedgehog pathway activation)
[5] = hShh activation, ALP activity, read-out: 10T1/2/Smo#3 ALP activity (hShh Activation)
[6] = SAG activation (500 nM SAG), read-out: Shh Light II luciferase activity (SAG activation)
[7] = hShh activation, read-out: Shh Light II luciferase activity (hShh activation)

Compound | IC50 [1, 3] | IC50 [2, 4] | IC50 [1, 5] | IC50 [2, 6] | IC50 [2, 7]
CN1CCC(Oc2ccc3nc(-c4ccc(C(F)(F)F)c(NC(=O)C(C)(C)C)c4)cn3n2)CC1 [Example 305, N-(5-(6-(1-methylpiperidin-4-yloxy)imidazo[1,2-b]pyridazin-2-yl)-2-(trifluoromethyl)phenyl)pivalamide] | 3.5 µM | 1.89 µM | – | – | –
CCc1ccc(-c2cn3nc(-c4cccnc4C(F)(F)F)ccc3n2)cc1NC(=O)C(C)(C)CC [Example 689, N-(2-ethyl-5-(6-(2-(trifluoromethyl)pyridin-3-yl)imidazo[1,2-b]pyridazin-2-yl)phenyl)-2,2-dimethylbutanamide] | 0.188 µM | 0.064 µM | – | – | –
CC(C)(C)C(=O)Nc1cc(-c2cn3nc(C4CCCC4)ccc3n2)ccc1C(F)(F)F [Example 133, N-(5-(6-cyclopentylimidazo[1,2-b]pyridazin-2-yl)-2-(trifluoromethyl)phenyl)pivalamide] | 0.849 µM | 0.487 µM | – | – | –
Cc1ccnc(-c2ccc3nc(-c4ccc(C(F)(F)F)c(NC(=O)C(C)(C)C)c4)cn3n2)c1 [Example 151, N-(5-(6-(4-methylpyridin-2-yl)imidazo[1,2-b]pyridazin-2-yl)-2-(trifluoromethyl)phenyl)pivalamide] | 1.81 µM | 0.899 µM | – | – | –
Cc1cc(Cl)c(-c2cn3nc(Cl)ccc3n2)cc1NC(=O)C(C)(C)C [Example 131, N-(4-chloro-5-(6-chloroimidazo[1,2-b]pyridazin-2-yl)-2-methylphenyl)pivalamide] | 8.28 µM | 1.45 µM | – | – | –
COc1ccc2nc(-c3ccc(C)c(NC(=O)c4ccc(F)cc4Cl)c3)cn2n1 [Example 98, 2-chloro-4-fluoro-N-(5-(6-methoxyimidazo[1,2-b]pyridazin-2-yl)-2-methylphenyl)benzamide] | 2.04 µM | 1.34 µM | – | – | –
C#Cc1ccc(-c2cn3nc(-c4ccccc4F)ccc3n2)cc1NC(=O)C(C)(C)C [Example 321, N-(2-ethynyl-5-(6-(2-fluorophenyl)imidazo[1,2-b]pyridazin-2-yl)phenyl)pivalamide] | – | 0.323 µM | 0.3 to 3 µM | 0.3 to 3 µM | < 0.3 µM
Cc1cc(-c2ccc3nc(-c4ccc(C(F)(F)F)c(NC(=O)C(C)(C)C)c4)cn3n2)ccn1 [Example 381, N-(5-(6-(2-methylpyridin-4-yl)imidazo[1,2-b]pyridazin-2-yl)-2-(trifluoromethyl)phenyl)pivalamide] | 0.58 µM | 1.25 µM | – | – | –
Cc1ccc(-c2cn3nc(-c4ccc(C(N)=O)cc4F)ccc3n2)cc1NC(=O)C(C)(C)C [compound 541] | 0.181 µM | 0.255 µM | – | – | –
COc1cccc(-c2ccc3nc(-c4ccc(C(F)(F)F)c(NC(=O)C(C)(C)C)c4)cn3n2)n1 [Example 147, N-(5-(6-(6-methoxypyridin-2-yl)imidazo[1,2-b]pyridazin-2-yl)-2-(trifluoromethyl)phenyl)pivalamide] | > 10 µM | 1.04 µM | – | – | –
Cc1ccc(-c2cn3nc(-c4cccnc4C(F)(F)F)ccc3n2)cc1NC(=O)c1cccc(C=CC(=O)Nc2ccccc2N)c1 [compound 623, 3-(3-((2-aminophenyl)amino)-3-oxoprop-1-en-1-yl)-N-(2-methyl-5-(6-(2-(trifluoromethyl)pyridin-3-yl)imidazo[1,2-b]pyridazin-2-yl)phenyl)benzamide] | 0.145 µM | 0.198 µM | < 0.3 µM | 0.3 to 3 µM | < 0.3 µM
CC(C)Oc1ccc2nc(-c3ccc(C(F)(F)F)c(NC(=O)C(C)(C)C)c3)cn2n1 [Example 181, N-(5-(6-isopropoxyimidazo[1,2-b]pyridazin-2-yl)-2-(trifluoromethyl)phenyl)pivalamide] | 1.07 µM | 0.245 µM | – | – | –
Cc1cc(C)c(-c2cn3ncccc3n2)cc1NC(=O)C(C)(C)C [Example 107, N-(5-(imidazo[1,2-b]pyridazin-2-yl)-2,4-dimethylphenyl)pivalamide] | 7.27 µM | 2.77 µM | – | – | –
Cc1ccc(-c2cn3nc(NCc4ccc(C(=O)Nc5ccccc5N)cc4)ccc3n2)cc1NC(=O)C(C)(C)C [compound 599] | 0.248 µM | 0.048 µM | – | – | –
Cc1ccc(-c2cn3nc(-c4ccccc4C(F)(F)F)ccc3n2)cc1NC(=O)C(C)(C)C [Example 259, N-(2-methyl-5-(6-(2-(trifluoromethyl)phenyl)imidazo[1,2-b]pyridazin-2-yl)phenyl)pivalamide] | 0.08 µM | 0.084 µM | – | – | –
CC(C)(C)C(=O)Nc1cc(-c2cn3nc(Oc4ccc(F)cc4)ccc3n2)ccc1C(F)(F)F [Example 196, N-(5-(6-(4-fluorophenoxy)imidazo[1,2-b]pyridazin-2-yl)-2-(trifluoromethyl)phenyl)pivalamide] | 1.62 µM | 0.726 µM | 0.3 to 3 µM | 3 to 30 µM | 0.3 to 3 µM
O=C(Nc1cc(-c2cn3nc(-c4cccnc4C(F)(F)F)ccc3n2)ccc1Cl)N1CCCC1 [Example 656, N-(2-chloro-5-(6-(2-(trifluoromethyl)pyridin-3-yl)imidazo[1,2-b]pyridazin-2-yl)phenyl)pyrrolidine-1-carboxamide] | 0.117 µM | 0.038 µM | – | – | –
CC(C)(C)C(=O)Nc1cc(-c2cn3nc(C4CC4)ccc3n2)ccc1C(F)(F)F [Example 139, N-(5-(6-cyclopropylimidazo[1,2-b]pyridazin-2-yl)-2-(trifluoromethyl)phenyl)pivalamide] | 0.451 µM | 0.186 µM | – | – | –
CCOc1ccc2nc(-c3ccc(C(F)(F)F)c(NC(=O)C(C)C)c3)cn2n1 [Example 185, N-(5-(6-ethoxyimidazo[1,2-b]pyridazin-2-yl)-2-(trifluoromethyl)phenyl)isobutyramide] | 1.67 µM | 1.78 µM | – | – | –
Cc1ccc(-c2cn3nc(-c4cc(C(N)=NO)ccc4C(F)(F)F)ccc3n2)cc1NC(=O)C(C)(C)C [compound 601] | 0.04 µM | 0.066 µM | – | – | –
CC(C)(C)C(=O)Nc1cc(-c2cn3nc(Oc4ccccc4F)ccc3n2)ccc1C(F)(F)F [Example 195, N-(5-(6-(2-fluorophenoxy)imidazo[1,2-b]pyridazin-2-yl)-2-(trifluoromethyl)phenyl)pivalamide] | 0.718 µM | 0.267 µM | – | – | –
Cc1ccc(-c2cn3nc(-c4cc(Cl)cnc4F)ccc3n2)cc1NC(=O)C(C)(C)C [Example 279, N-(5-(6-(5-chloro-2-fluoropyridin-3-yl)imidazo[1,2-b]pyridazin-2-yl)-2-methylphenyl)pivalamide] | 0.129 µM | 0.282 µM | – | – | –
CC(C)(C)C(=O)Nc1cc(-c2cn3nc(-c4ccccn4)ccc3n2)ccc1C(F)(F)F [Example 141, N-(5-(6-(pyridin-2-yl)imidazo[1,2-b]pyridazin-2-yl)-2-(trifluoromethyl)phenyl)pivalamide] | 9.06 µM | 0.26 µM | 3 to 30 µM | < 0.3 µM | < 0.3 µM
CC(C)(C)C(=O)Nc1cc(-c2cn3nc(N4CCC(F)(F)CC4)ccc3n2)ccc1C(F)(F)F [Example 235, N-(5-(6-(4,4-difluoropiperidin-1-yl)imidazo[1,2-b]pyridazin-2-yl)-2-(trifluoromethyl)phenyl)pivalamide] | 0.271 µM | 0.318 µM | < 0.3 µM | 0.3 to 3 µM | < 0.3 µM
Cc1ccc(-c2cn3nc(-c4cccnc4C)ccc3n2)cc1NC(=O)C(C)(C)C [Example 278, N-(2-methyl-5-(6-(2-methylpyridin-3-yl)imidazo[1,2-b]pyridazin-2-yl)phenyl)pivalamide] | 0.228 µM | 0.162 µM | – | – | –
CC(C)(C)C(=O)Nc1cc(-c2cn3nc(-c4ccc(C(F)(F)F)cc4)ccc3n2)ccc1C(F)(F)F [Example 210, N-(2-(trifluoromethyl)-5-(6-(4-(trifluoromethyl)phenyl)imidazo[1,2-b]pyridazin-2-yl)phenyl)pivalamide] | 0.375 µM | 0.223 µM | – | – | –
Cc1ccc(-c2cn3nc(-c4cccc(OCC(=O)NO)c4C(F)(F)F)ccc3n2)cc1NC(=O)C(C)(C)C [Example 439, N-(5-(6-(3-(2-(hydroxyamino)-2-oxoethoxy)-2-(trifluoromethyl)phenyl)imidazo[1,2-b]pyridazin-2-yl)-2-methylphenyl)pivalamide] | 0.746 µM | 0.365 µM | – | – | –
COC(=O)CCCCCCNC(=O)c1ccc(-c2ccc3nc(-c4ccc(C)c(NC(=O)C(C)(C)C)c4)cn3n2)c(C(F)(F)F)c1 [compound 509] | 0.213 µM | 0.158 µM | < 0.3 µM | 0.3 to 3 µM | < 0.3 µM
CCOC(=O)CCCCCCOc1cccc(-c2ccc3nc(-c4ccc(C)c(NC(=O)C(C)(C)C)c4)cn3n2)c1C(F)(F)F [Example 423, ethyl 7-(3-(2-(4-methyl-3-pivalamidophenyl)imidazo[1,2-b]pyridazin-6-yl)-2-(trifluoromethyl)phenoxy)heptanoate] | 0.265 µM | 1.56 µM | – | – | –
Cc1ccc(-c2cn3nc(-c4cnccc4C(F)(F)F)ccc3n2)cc1NC(=O)C(C)(C)C [Example 364, N-(2-methyl-5-(6-(4-(trifluoromethyl)pyridin-3-yl)imidazo[1,2-b]pyridazin-2-yl)phenyl)pivalamide] | 0.001 µM | 0.003 µM | – | – | –
